Data on one molecule can be found in publication PMC10686828, “DMSOP-cleaving enzymes are diverse and widely distributed in marine microorganisms” (Nature Microbiology, 2023).

In general, Km refers to the concentration of substrate that gives half-maximal velocity.

The target in assay [1] is T1, DddY (Acinetobacter bereziniae) (Acinetobacter bereziniae, UniProt N8X9V6).
T1 construct: gene F963_02809; pET-22b, C-terminal His tag, E. coli BL21(DE3); Ni-NTA and gel filtration
T1 sequence (N8X9V6 22-401 limits assumed): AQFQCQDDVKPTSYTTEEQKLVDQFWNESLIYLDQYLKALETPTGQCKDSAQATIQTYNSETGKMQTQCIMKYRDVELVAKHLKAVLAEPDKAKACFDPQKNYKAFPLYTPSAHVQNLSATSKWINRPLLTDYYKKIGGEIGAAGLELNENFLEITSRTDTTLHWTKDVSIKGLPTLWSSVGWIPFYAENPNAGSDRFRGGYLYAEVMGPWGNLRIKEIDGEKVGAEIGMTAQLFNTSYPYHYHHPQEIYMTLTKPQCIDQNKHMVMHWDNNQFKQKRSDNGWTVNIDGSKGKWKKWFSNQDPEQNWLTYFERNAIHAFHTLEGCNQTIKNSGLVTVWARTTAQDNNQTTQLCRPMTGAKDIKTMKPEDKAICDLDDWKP
The experiment in a line: HPLC of DMSO and acrylate. Particulars: 5 mM DMSOP, pH 8.0, 30 °C. Type of assay: biochemical.

Another assay deals with T2, DddL.
T2 construct: pET-22b, C-terminal His tag, E. coli BL21(DE3)
In words: HPLC of acrylate, initial rates, non-linear fit. In kind it is biochemical. Particulars: pH 8, 30 °C.

Regarding `C[S+](C)(=O)CCC(=O)[O-]` [DMSOP], the “HPLC of DMSO and acrylate” value in assay [1] is “purified DddY proteins yielded DMSO and acrylate from DMSOP”. In addition, the Km with DddL amounted to 65 ± 10.9 mM.
